Tests used:
Test in all cases: Kinase binding assay (kinase-tagged T7 phage, affinity beads, qPCR), Kd
FGFR3 (V555M) = molecular target: T1, FGFR3 (V555M) (Homo sapiens, UniProt P22607, V555M); conditions: V555M mutant; read-out: FGFR3 (V555M) (Kd nM)
T1 construct: made in house; host or cells: E. coli (BL21-derived), T7 phage
Outline: (§1)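 Competition binding; kinase-tagged T7 phage lysate vs immobilised biotinylated ligand on streptavidin beads, 0.9% DMSO final. 11-pt 3-fold dilutions, 3 DMSO controls. qPCR of eluted kinase; Kd by Hill fit, slope −1.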

FGFR2 = molecular target: T2, FGFR2 (Homo sapiens, UniProt P21802); conditions: read-out: FGFR2 (Kd nM)
T2 construct: made in house; host or cells: E. coli (BL21-derived), T7 phage
Outline: as §1

FGFR1 = molecular target: T3, FGFR1 (Homo sapiens, UniProt P11362); conditions: read-out: FGFR1 (Kd nM)
T3 construct: made in house; host or cells: E. coli (BL21-derived), T7 phage
Outline: as §1

FGFR4 = molecular target: T4, FGFR4 (Homo sapiens, UniProt P22455); conditions: read-out: FGFR4 (Kd nM)
T4 construct: made in house; host or cells: E. coli (BL21-derived), T7 phage
Outline: as §1

FGFR3 = molecular target: T5, FGFR3 (Homo sapiens, UniProt P22607); conditions: read-out: FGFR3 (Kd nM)
T5 construct: made in house; host or cells: E. coli (BL21-derived), T7 phage
Outline: as §1

T5 sequence (P22607 23-806): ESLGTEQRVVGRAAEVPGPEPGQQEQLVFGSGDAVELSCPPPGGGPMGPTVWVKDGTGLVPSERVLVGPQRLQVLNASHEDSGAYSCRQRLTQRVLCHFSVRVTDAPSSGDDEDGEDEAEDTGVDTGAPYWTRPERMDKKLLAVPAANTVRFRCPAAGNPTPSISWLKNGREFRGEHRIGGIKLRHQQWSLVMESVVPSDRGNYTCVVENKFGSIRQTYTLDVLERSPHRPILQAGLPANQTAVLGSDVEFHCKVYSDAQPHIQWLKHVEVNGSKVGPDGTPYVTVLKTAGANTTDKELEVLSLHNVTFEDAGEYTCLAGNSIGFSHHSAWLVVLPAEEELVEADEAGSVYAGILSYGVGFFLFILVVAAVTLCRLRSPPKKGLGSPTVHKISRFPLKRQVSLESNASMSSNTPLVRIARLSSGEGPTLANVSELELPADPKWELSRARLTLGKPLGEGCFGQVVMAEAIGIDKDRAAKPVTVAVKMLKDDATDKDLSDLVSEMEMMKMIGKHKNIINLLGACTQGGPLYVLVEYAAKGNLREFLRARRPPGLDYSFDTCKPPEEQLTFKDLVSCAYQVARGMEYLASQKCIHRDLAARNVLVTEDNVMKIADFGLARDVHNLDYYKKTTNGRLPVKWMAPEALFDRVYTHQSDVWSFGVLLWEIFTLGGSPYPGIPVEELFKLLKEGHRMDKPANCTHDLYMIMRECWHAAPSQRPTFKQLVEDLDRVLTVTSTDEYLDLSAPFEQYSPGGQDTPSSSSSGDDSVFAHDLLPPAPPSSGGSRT
T1 sequence (P22607 23-806 V555M): as the sequence (P22607 23-806) above, with V533M counted along it
T4 sequence (P22455 22-802): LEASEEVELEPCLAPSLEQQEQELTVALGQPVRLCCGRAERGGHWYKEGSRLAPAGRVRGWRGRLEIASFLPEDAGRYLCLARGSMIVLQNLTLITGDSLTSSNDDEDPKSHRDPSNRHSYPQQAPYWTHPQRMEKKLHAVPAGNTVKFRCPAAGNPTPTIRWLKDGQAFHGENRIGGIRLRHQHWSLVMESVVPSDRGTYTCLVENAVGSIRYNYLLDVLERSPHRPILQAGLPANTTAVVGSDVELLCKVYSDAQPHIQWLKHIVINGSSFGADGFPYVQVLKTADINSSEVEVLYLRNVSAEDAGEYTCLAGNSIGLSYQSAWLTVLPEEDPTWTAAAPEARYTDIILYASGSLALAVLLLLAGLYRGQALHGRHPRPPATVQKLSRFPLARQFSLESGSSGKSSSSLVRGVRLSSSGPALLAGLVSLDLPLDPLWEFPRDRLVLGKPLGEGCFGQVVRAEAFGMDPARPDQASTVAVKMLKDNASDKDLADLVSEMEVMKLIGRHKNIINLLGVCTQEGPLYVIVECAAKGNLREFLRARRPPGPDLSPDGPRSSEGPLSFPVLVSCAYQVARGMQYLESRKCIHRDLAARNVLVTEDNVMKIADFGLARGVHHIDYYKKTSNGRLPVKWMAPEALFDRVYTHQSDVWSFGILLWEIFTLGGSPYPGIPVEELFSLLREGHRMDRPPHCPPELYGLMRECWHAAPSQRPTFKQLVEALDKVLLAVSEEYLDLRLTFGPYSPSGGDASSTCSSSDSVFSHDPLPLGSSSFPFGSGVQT
T2 sequence (P21802 22-821): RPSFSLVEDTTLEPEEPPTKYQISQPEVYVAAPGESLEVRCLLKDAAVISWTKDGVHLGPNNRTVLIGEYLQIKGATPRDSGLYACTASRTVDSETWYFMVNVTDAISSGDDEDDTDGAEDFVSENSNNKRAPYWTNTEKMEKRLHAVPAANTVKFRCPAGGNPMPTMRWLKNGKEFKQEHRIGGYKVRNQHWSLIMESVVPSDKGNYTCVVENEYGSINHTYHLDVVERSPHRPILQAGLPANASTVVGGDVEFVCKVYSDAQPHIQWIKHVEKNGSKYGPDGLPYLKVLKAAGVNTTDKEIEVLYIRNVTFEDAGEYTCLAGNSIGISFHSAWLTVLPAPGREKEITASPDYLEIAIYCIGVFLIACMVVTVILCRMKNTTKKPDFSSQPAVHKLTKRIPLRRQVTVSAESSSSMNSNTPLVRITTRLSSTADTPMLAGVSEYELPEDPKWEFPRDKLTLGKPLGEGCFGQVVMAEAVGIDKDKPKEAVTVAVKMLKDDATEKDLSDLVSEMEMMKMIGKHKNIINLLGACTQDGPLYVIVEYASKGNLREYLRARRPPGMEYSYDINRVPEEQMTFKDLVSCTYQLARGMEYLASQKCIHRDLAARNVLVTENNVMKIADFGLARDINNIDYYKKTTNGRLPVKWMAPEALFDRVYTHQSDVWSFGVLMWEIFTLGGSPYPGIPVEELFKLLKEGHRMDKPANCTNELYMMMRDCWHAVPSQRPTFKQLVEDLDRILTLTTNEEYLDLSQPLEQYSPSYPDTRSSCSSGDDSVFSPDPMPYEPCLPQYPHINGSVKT
T3 sequence (P11362 22-822): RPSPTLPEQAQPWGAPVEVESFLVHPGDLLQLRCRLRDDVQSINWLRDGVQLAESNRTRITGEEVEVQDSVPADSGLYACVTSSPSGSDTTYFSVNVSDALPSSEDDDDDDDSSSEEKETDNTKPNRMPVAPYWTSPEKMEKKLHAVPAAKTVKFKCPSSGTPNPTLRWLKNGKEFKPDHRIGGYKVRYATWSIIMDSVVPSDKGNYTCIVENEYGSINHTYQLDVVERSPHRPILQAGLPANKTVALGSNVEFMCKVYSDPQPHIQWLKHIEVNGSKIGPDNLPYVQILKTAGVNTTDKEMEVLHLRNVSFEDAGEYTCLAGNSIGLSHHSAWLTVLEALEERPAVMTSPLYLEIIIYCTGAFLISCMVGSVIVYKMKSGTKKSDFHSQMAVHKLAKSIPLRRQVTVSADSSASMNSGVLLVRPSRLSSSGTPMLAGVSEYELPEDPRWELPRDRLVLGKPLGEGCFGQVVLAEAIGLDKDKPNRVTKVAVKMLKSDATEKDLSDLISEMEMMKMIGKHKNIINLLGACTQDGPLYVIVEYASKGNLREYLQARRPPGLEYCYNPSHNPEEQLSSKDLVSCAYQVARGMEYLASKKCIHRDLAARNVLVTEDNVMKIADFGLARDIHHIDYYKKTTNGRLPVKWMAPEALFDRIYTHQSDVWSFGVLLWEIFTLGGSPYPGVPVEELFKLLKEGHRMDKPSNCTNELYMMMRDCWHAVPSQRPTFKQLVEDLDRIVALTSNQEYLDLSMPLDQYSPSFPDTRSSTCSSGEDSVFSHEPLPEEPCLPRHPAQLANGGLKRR

| Compound | Kd (FGFR3 (V555M)) [nM] | Kd (FGFR2) [nM] | Kd (FGFR1) [nM] | Kd (FGFR4) [nM] | Kd (FGFR3) [nM] |
| --- | --- | --- | --- | --- | --- |
| C[C@@H](Oc1ccc2[nH]nc(-c3cnc(N4CC(C)(N5CCC5)C4)c(F)c3)c2c1F)c1c(Cl)cncc1Cl [Example 184, (R)-5-(1-(3,5-dichloropyridin-4-yl)ethoxy)-4-fluoro-3-(5-fluoro-6-(3′-methyl-[1,3′-biazetidin]-1′-yl)pyridin-3-yl)-1H-indazole] | 1 to 50 | 300 to 1000 | 300 to 1000 | 50 to 300 | 1 to 50 |
| C[C@@H](Oc1ccc2[nH]nc(-c3ccc(N4CC(C)(N5CCCC5)C4)nc3)c2c1F)c1c(Cl)cncc1Cl [Example 177, (R)-5-(1-(3,5-dichloropyridin-4-yl)ethoxy)-4-fluoro-3-(6-(3-methyl-3-(pyrrolidin-1-yl)azetidin-1-yl)pyridin-3-yl)-1H-indazole] | 1 to 50 | 300 to 1000 | 50 to 300 | 50 to 300 | 1 to 50 |
| COc1cc2[nH]nc(-c3cnc(N4CC(C)(NCCO)C4)c(F)c3)c2cc1O[C@H](C)c1c(Cl)cncc1Cl [Example 164, (R)-2-((1-(5-(5-(1-(3,5-dichloro-pyridin-4-yl)ethoxy)-6-methoxy-1H-indazol-3-yl)-3-fluoropyridin-2-yl)-3-methylazetidin-3-yl)amino)ethan-1-ol] | 1 to 50 | 1 to 50 | 1 to 50 | 1 to 50 | 1 to 50 |
| C[C@@H](Oc1ccc2[nH]nc(-c3cnc(N4CC(C)(CN5CCCC5)C4)c(F)c3)c2c1F)c1c(Cl)cncc1Cl [Example 185, (R)-5-(1-(3,5-dichloropyridin-4-yl)ethoxy)-4-fluoro-3-(5-fluoro-6-(3-methyl-3-(pyrrolidin-1-ylmethyl)azetidin-1-yl)pyridin-3-yl)-1H-indazole] | 50 to 300 | 300 to 1000 | 300 to 1000 | 50 to 300 | 50 to 300 |
| C[C@@H](Oc1ccc2[nH]nc(-c3cnc(N4CC(C)(NCC5CC5)C4)c(F)c3)c2c1F)c1c(Cl)cncc1Cl [Example 174, (R)-N-(cyclo-propylmethyl)-1-(5-(5-(1-(3,5-dichloropyridin-4-yl)ethoxy)-4-fluoro-1H-indazol-3-yl)-3-fluoropyridin-2-yl)-3-methylazetidin-3-amine] | 50 to 300 | > 1000 | 300 to 1000 | 50 to 300 | 50 to 300 |
| C[C@@H](Oc1cc2c(-c3cnc(N4CC(C)(N5CCC5)C4)c(F)c3)n[nH]c2cc1F)c1c(Cl)cncc1Cl [Example 163, 3-[6-[3-(azetidin-1-yl)-3-methyl-azetidin-1-yl]-5-fluoro-3-pyridyl]-5-[(1R)-1-(3,5-dichloro-4-pyridyl)ethoxy]-6-fluoro-1H-indazole] | 1 to 50 | 1 to 50 | 1 to 50 | 1 to 50 | 1 to 50 |
| C[C@@H](Oc1cc2c(-c3ccc(N4CC(C)(NC5CCC5)C4)nc3)n[nH]c2cc1F)c1c(Cl)cncc1Cl [Example 68, N-cyclobutyl-1-[5-[5-[(1R)-1-(3,5-dichloro-4-pyridyl)ethoxy]-6-fluoro-1H-indazol-3-yl]-2-pyridyl]-3-methyl-azetidin-3-amine] | 1 to 50 | 1 to 50 | 1 to 50 | 1 to 50 | 1 to 50 |
| C[C@@H](Oc1ccc2[nH]nc(-c3cnc(N4CC(C)(NCCO)C4)c(F)c3)c2c1F)c1c(Cl)cncc1Cl [Example 175, (R)-2-((1-(5-(5-(1-(3,5-dichloro-pyridin-4-yl)ethoxy)-4-fluoro-1H-indazol-3-yl)-3-fluoropyridin-2-yl)-3-methylazetidin-3-yl)amino)ethan-1-ol] | 50 to 300 | > 1000 | > 1000 | 50 to 300 | 50 to 300 |
| COc1cc2[nH]nc(-c3cnc(N4CC5(CC5)C4)c(C#N)c3)c2cc1O[C@H](C)c1c(Cl)cncc1Cl [Example 3, (R)-5-(5-(1-(3,5-dichloropyridin-4-yl)ethoxy)-6-methoxy-1H-indazol-3-yl)-2-(5-azaspiro[2.3]hexan-5-yl)nicotinonitrile] | 1 to 50 | 300 to 1000 | 50 to 300 | 1 to 50 | 1 to 50 |
| CCNC1(C)CN(c2ncc(-c3n[nH]c4ccc(O[C@H](C)c5c(Cl)cnc(C)c5Cl)cc34)cc2C#N)C1 [Example 40, 5-[5-[(1R)-1-(3,5-dichloro-2-methyl-4-pyridyl)ethoxy]-1H-indazol-3-yl]-2-[3-(ethylamino)-3-methyl-azetidin-1-yl]pyridine-3-carbonitrile] | 1 to 50 | 50 to 300 | 50 to 300 | 1 to 50 | 1 to 50 |
| C[C@@H](Oc1ccc2[nH]nc(-c3ccc(N4CC(C)(NCC(F)F)C4)nc3)c2c1)c1c(Cl)cncc1Cl [Example 125, 1-[5-[5-[(1R)-1-(3,5-dichloro-4-pyridyl)ethoxy]-1H-indazol-3-yl]-2-pyridyl]-N-(2,2-difluoroethyl)-3-methyl-azetidin-3-amine] | 1 to 50 | 1 to 50 | 1 to 50 | 1 to 50 | 1 to 50 |
| 3-[6-[3-(cyclobutoxy)- 3-methyl-azetidin-1- yl]-3-pyridy1]-5-[(1R)- 1-(3,5-dichloro-2- methyl-4- pyridyl)ethoxy]-1H- indazole [Example 75] | 1 to 50 | 50 to 300 | 300 to 1000 | 50 to 300 | 1 to 50 |

Further lines, results first:

| Kd (FGFR3 (V555M)) [nM] | Kd (FGFR2) [nM] | Kd (FGFR1) [nM] | Kd (FGFR4) [nM] | Kd (FGFR3) [nM] | Compound |
| --- | --- | --- | --- | --- | --- |
| 1 to 50 | 1 to 50 | 1 to 50 | 1 to 50 | 1 to 50 | C[C@@H](Oc1ccc2[nH]nc(-c3ccc(N4CC(C)(NCP(C)(C)=O)C4)nc3)c2c1)c1c(Cl)cncc1Cl [Example 230, 1-[5-[5-[(1R)-1-(3,5-dichloro-4-pyridyl)ethoxy]-1H-indazol-3-yl]-2-pyridyl]-N-(di-methylphosphoryl-methyl)-3-methyl-azetidin-3-amine] |
| 1 to 50 | 1 to 50 | 1 to 50 | 1 to 50 | 1 to 50 | C[C@@H](Oc1cc2c(-c3ccc(N4CC(C)(CN5CCOCC5)C4)nc3)n[nH]c2cc1F)c1c(Cl)cncc1Cl [Example 186, (R)-4-((1-(5-(5-(1-(3,5-dichloro-pyridin-4-yl)ethoxy)-6-fluoro-1H-indazol-3-yl)pyridin-2-yl)-3-methylazetidin-3-yl)methyl)morpho-line] |
| 1 to 50 | 1 to 50 | 1 to 50 | 1 to 50 | 1 to 50 | C[C@@H](Oc1ccc2[nH]nc(-c3ccc(N4CC(C)(N5C[C@H]6C[C@@H]5CO6)C4)nc3)c2c1)c1c(Cl)cncc1Cl [Example 231, (1R,4R)-5-(1-(5-(5-((R)-1-(3,5-dichloropyridin-4-yl)ethoxy)-1H-indazol-3-yl)pyridin-2-yl)-3-methylazetidin-3-yl)-2-oxa-5-aza-bicyclo[2.2.1]hep-tane] |
| 1 to 50 | > 1000 | 300 to 1000 | 50 to 300 | 50 to 300 | C[C@H](Oc1ccc2[nH]nc(-c3cnc(N4C[C@@H](CS(C)(=O)=O)[C@@H]4C)c(F)c3)c2c1)c1c(Cl)cncc1Cl [Example 202, 5-((S)-1-(3,5-dichloropyridin-4-yl)ethoxy)-3-(5-fluoro-6-((2S,3R)-2-methyl-3-((meth-ylsulfonyl)meth-yl)azetidin-1-yl)pyridin-3-yl)-1H-indazole] |
| 1 to 50 | 1 to 50 | 1 to 50 | 1 to 50 | 1 to 50 | CC(C)NC1(C)CN(c2ncc(-c3n[nH]c4ccc(O[C@H](C)c5c(Cl)cncc5Cl)cc34)cn2)C1 [Example 236, (R)-1-(5-(5-(1-(3,5-dichloropyridin-4-yl)ethoxy)-1H-indazol-3-yl)pyrimidin-2-yl)-N-isopropyl-3-methylazetidin-3-amine] |
| 1 to 50 | 300 to 1000 | 300 to 1000 | 300 to 1000 | 1 to 50 | CC(C)NCC1(C)CN(c2ccc(-c3n[nH]c4ccc(O[C@H](C)c5c(Cl)cncc5Cl)c(F)c34)cn2)C1 [Example 190, (R)-N-((1-(5-(5-(1-(3,5-dichloro-pyridin-4-yl)ethoxy)-4-fluoro-1H-indazol-3-yl)pyridin-2-yl)-3-methylazetidin-3-yl)methyl)propan-2-amine] |
| 1 to 50 | 1 to 50 | 1 to 50 | 1 to 50 | 1 to 50 | C[C@@H](Oc1ccc2[nH]nc(-c3cnc(N4CC(C)(CS(C)(=O)=O)C4)nc3)c2c1)c1c(Cl)cncc1Cl [Example 195, (R)-5-(1-(3,5-dichloro-pyridin-4-yl)ethoxy)-3-(2-(3-methyl-3-((methylsulfonyl)-methyl)azetidin-1-yl)pyrimidin-5-yl)-1H-indazole] |
| > 1000 | > 1000 | > 1000 | 50 to 300 | > 1000 | C[C@@H](Oc1ccc2[nH]nc(-c3cnc(N4CC(C)(NCC5CC5)C4)c(C#N)c3)c2c1F)c1c(Cl)cncc1Cl [Example 318, (R)-2-(3-((cyclopropylmethyl)amino)-3-methylazetidin-1-yl)-5-(5-(1-(3,5-dichloropyridin-4-yl)ethoxy)-4-fluoro-1H-indazol-3-yl)nicotinonitrile] |
| 300 to 1000 | 300 to 1000 | 300 to 1000 | 300 to 1000 | 50 to 300 | C[C@H](Oc1ccc2[nH]nc(-c3cnc(N4CC(C)(N(C)C)C4)c(F)c3)c2c1)c1c(Cl)cncc1Cl [Example 201, 1-[5-[5-[(1S)-1-(3,5-dichloro-4-pyridyl)ethoxy]-1H-indazol-3-yl]-3-fluoro-2-pyridyl]-N,N,3-trimethyl-azetidin-3-amine] |

From US20250368666A1, “INDAZOLE COMPOUNDS” (TYRA BIOSCIENCES, INC., priority 2022, published 2025)
